In patent publication US11512090B2, “Muscarinic acetylcholine M1 receptor antagonists” (PIPELINE THERAPEUTICS, INC., priority 2018, dated 2022):
pIC50: −log10 of the molar value. Read-outs that look alike come from different tables or passages of the source.

Legend:
Assay type in all cases: cell-based
M2 = biological target: T1, M2 (Homo sapiens, UniProt P08172); assay: In vitro functional assay of muscarinic acetylcholine receptor activity, M2
T1 sequence (P08172 1-466): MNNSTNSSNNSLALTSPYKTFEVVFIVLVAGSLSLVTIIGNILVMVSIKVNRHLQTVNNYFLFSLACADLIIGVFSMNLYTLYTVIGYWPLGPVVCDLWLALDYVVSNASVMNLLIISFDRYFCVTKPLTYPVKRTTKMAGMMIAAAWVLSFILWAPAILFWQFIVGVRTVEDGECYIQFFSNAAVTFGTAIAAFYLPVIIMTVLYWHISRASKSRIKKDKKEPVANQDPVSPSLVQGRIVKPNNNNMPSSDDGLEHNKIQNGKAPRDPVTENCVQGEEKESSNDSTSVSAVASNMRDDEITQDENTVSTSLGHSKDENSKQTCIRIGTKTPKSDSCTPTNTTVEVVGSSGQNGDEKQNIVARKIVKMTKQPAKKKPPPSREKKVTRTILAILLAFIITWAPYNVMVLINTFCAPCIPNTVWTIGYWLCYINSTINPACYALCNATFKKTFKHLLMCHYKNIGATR
Description: [The procedure below names another target; the source lists this target under the same test.] (§1) CHO-K1 cells stably expressing human M1 receptor with Aequorin (Perkin Elmer) were grown in F12 media, 10% FBS with 0.4 mg/mL geneticin and […]. Cells were grown to confluence and frozen down to be assayed at a later date. On the day of the experiment cells were thawed in a 37° C. water bath, resuspended in DMEM/HAM's F12 with HEPES (Invitrogen)+0.1% protease-free BSA (assay buffer), and spun down to remove freezing media. After centrifugation, supernatant was removed and 12 mL of assay buffer was added. Coelenterazine h (Promega) was added to the cells at a final concentration of 5 uM and incubated for 4 hours at room temperature in the dark. Compound master plate-96 deep well (Corning) were formatted in a 8-point DRC in assay buffer with 0.2% DMSO at a starting concentration of 60 uM (2×). After 4 hours of incubation, cells were plated at a concentration of 5×10^5 cells/well in 96 well white-walled, tissue culture-treated, clear-bottom plates (VWR). Compounds were added to the daughter plate, and cells plus compound were incubated at room temperature for 30 minutes in the dark.
(§2) Calcium flux was measured using the FlexStation 3 (Molecular Devices). To measure the antagonist dose-response, the EC80 of Acetylcholine was injected to the daughter plate using the automated compound transfer function of the Flex Station, and the increase in luminescence was measured over time. Antagonist activity was analyzed as a concentration dependent decrease in the EC80 acetylcholine response. Dose response curves were generated using Prism (GraphPad Software). The IC50 of the compounds was calculated from the dose response curve.

human M1 receptor = biological target: T2, human M1 receptor (Homo sapiens, UniProt P11229); assay: In vitro functional assay of muscarinic acetylcholine receptor activity (aequorin calcium flux, antagonist mode vs EC80 acetylcholine), M1
T2 sequence (P11229 1-460): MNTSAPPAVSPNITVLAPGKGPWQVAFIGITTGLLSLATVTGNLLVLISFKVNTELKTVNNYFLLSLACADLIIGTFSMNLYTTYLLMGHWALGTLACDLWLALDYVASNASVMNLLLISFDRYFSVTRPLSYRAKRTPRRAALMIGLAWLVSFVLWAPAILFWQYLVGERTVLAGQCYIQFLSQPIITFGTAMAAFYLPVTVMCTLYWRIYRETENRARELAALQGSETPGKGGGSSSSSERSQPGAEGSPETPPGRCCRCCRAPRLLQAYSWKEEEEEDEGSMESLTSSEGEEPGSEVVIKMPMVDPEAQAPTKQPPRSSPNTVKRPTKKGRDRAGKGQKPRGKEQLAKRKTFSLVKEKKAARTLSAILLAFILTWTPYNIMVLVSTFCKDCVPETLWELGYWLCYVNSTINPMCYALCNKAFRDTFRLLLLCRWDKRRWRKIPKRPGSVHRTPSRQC
Description: as §1, §2

M3 = M3 (Homo sapiens, UniProt P20309); assay: In vitro functional assay of muscarinic acetylcholine receptor activity, M3; settings: antagonist IC50 at M3; read-out: M3 IC50
Description: [The procedure below names another target; the source lists this target under the same test.] as §1, §2

[1] = CHO-K1 cells stably expressing human M1 receptor with Aequorin, decrease in EC80 acetylcholine response, read-out: M1 IC50
[2] = antagonist IC50 at M2, read-out: M2 IC50

M3, sequence (P20309 whole entry): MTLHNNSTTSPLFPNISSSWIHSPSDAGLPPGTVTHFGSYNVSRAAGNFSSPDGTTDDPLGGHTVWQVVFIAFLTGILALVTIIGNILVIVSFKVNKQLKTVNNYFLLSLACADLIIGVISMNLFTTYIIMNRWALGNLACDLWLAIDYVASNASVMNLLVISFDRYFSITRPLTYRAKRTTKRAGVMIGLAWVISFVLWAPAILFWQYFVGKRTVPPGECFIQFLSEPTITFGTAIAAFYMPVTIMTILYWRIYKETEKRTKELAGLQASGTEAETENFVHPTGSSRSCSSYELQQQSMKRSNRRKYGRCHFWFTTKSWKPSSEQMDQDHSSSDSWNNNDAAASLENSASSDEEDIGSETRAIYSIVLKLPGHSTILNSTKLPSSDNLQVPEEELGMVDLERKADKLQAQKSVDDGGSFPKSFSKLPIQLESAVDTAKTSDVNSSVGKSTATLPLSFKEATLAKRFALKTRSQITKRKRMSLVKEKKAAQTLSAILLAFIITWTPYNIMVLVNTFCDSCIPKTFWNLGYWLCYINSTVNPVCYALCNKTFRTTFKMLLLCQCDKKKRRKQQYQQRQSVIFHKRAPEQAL

| Structure (SMILES) | pIC50 (M2) | pIC50 (human M1 receptor; [1]) | pIC50 (M3) | pIC50 (M2; [2]) | pIC50 (human M1 receptor) |
| --- | --- | --- | --- | --- | --- |
| O=C(N1CC(Oc2cccc3cnccc23)C1)N1C[C@H]2CC[C@@H](C1)N2c1ccc(F)cn1 [Example 3, ((1R,5S)-8-(5-fluoropyridin-2-yl)-3,8-diazabicyclo[3.2.1]octan-3-yl)(3-(isoquinolin-5-yloxy)azetidin-1-yl)methanone] | 6.00 to 7.00 | < 5.00 | 5.00 to 6.00 | – | – |
| O=C(CCCc1cccc2ncccc12)N1CCN(c2ccncc2)CC1 [Example 4, 1-(4-(pyridin-4-yl)piperazin-1-yl)-4-(quinolin-5-yl)butan-1-one] | – | > 7.00 | 5.00 to 6.00 | 5.00 to 6.00 | – |
| CC1CN(c2ccc(F)cn2)CCN1C(=O)[C@H]1C[C@H](Oc2cccc3ncsc23)C1 (stereo partly drawn) [Example 5, ((1R,3R)-3-(benzo[d]thiazol-7-yloxy)cyclobutyl)(4-(5-fluoropyridin-2-yl)-2-methylpiperazin-1-yl)methanone] | – | < 5.00 | < 5.00 | < 5.00 | – |
| O=C(C1CN(Cc2cccc3ncsc23)C1)N1C[C@H]2CC[C@@H](C1)N2c1ccncc1F [Example 7] | – | 5.00 to 6.00 | < 5.00 | < 5.00 | – |
| O=C(CCNCc1cccc2ncsc12)N1C[C@H]2CC[C@@H](C1)N2c1ccncc1F [Example 8, 3-((benzo[d]thiazol-7-ylmethyl)amino)-1-((1R,5S)-8-(3-fluoropyridin-4-yl)-3,8-diazabicyclo[3.2.1]octan-3-yl)propan-1-one] | – | – | 5.00 to 6.00 | 5.00 to 6.00 | > 7.00 |
| O=C(C1CC1COc1cccc2ncsc12)N1C[C@H]2CC[C@@H](C1)N2c1ccncc1F (stereo partly drawn) [Example 9, (2-((benzo[d]thiazol-7-yloxy)methyl)-cyclopropyl)((1R,5S)-8-(3-fluoropyridin-4-yl)-3,8-diazabicyclo[3.2.1]octan-3-yl)methanone] | – | < 5.00 | 5.00 to 6.00 | 5.00 to 6.00 | – |
| O=C(CCNCc1cccc2ncccc12)N1C[C@H]2CC[C@@H](C1)N2c1ccncc1F [Example 10, 1-((1R,5S)-8-(3-fluoropyridin-4-yl)-3,8-diazabicyclo[3.2.1]octan-3-yl)-3-((quinolin-5-ylmethyl)amino)propan-1-one] | – | 5.00 to 6.00 | < 5.00 | < 5.00 | – |
| O=C(COCCc1cccc2ncccc12)N1C[C@H]2CC[C@@H](C1)N2c1ccncc1F [Example 11, 1-((1R,5S)-8-(3-fluoropyridin-4-yl)-3,8-diazabicyclo-[3.2.1]octan-3-yl)-2-(2-(quinolin-5-yl)ethoxy)ethan-1-one] | – | – | < 5.00 | 5.00 to 6.00 | 6.00 to 7.00 |
| O=C(CCOCc1cccc2nccn12)N1C[C@H]2CC[C@@H](C1)N2c1ccncc1F [Example 12, 1-((1R,5S)-8-(3-fluoropyridin-4-yl)-3,8-diazabicyclo[3.2.1]octan-3-yl)-3-(imidazo[1,2-a]pyridin-5-ylmethoxy)propan-1-one] | – | – | < 5.00 | 5.00 to 6.00 | 6.00 to 7.00 |
| Cc1cc(F)cnc1N1CCN(C(=O)CNCc2cccc3ncccc23)[C@@H](C)C1 [Example 13, 1-[(2S)-4-(5-fluoro-3-methylpyridin-2-yl)-2-methylpiperazin-1-yl]-2-[[(quinolin-5-yl)methyl]amino]ethanone] | – | 6.00 to 7.00 | 5.00 to 6.00 | 5.00 to 6.00 | – |
| O=C(CCNCc1cccc2nccn12)N1CC2CCC(C1)N2c1ccncc1F [Example 14, 1-[8-(3-fluoropyridin-4-yl)-3,8-diazabicyclo[3.2.1]octan-3-yl]-3-[([imidazo[1,2-a]pyridin-5-yl]methyl)amino]propan-1-one] | – | – | < 5.00 | < 5.00 | 6.00 to 7.00 |
| O=C(CNCCc1cccc2ncsc12)N1CC2CCC(C1)N2c1ccncc1F [Example 15, 2-[[2-(1,3-benzothiazol-7-yl)ethyl]amino]-1-[8-(3-fluoropyridin-4-yl)-3,8-diazabicyclo[3.2.1]octan-3-yl]ethan-1-one] | – | – | < 5.00 | 5.00 to 6.00 | 6.00 to 7.00 |
